Publication PMC7489219 (Molecular Brain, 2020)
Where a name gives a salt, the structure may show the parent alone.

tested on: T1, primary mouse cortical neurons; assay: cells; parameters: Protection from NMDA-induced (30 uM, 10 min) neuronal death; Hoechst nuclear morphology by automated microscopy; details: Cortical neurone, 20 h, read-out: % inhibition, inhibition of NMDA-induced cell death (protection score), 30 min pre-treatment
T1 construct: primary cortical neurons, DIV 10
Method in brief: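 On DIV 10, primary mouse cortical neurons were given compound at 10 μM for 30 min at 37 °C, then 30 μM NMDA for 10 min, washed, and kept 20 h with compound. Dead cells were scored by nuclear morphology, and % protection was derived from survival relative to vehicle + NMDA and untreated controls.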

Row | SMILES | inhibition at 10 µM
1 | COC(=O)Nc1nc2cc(Sc3ccccc3)ccc2[nH]1 [Fenbendazole (Panacur)] | -8.52%
2 | CC(C(=O)O)c1cccc(Oc2ccccc2)c1 (stereo not shown) [Fenoprofen calcium] | 1.38%
3 | CC(C)C(=O)Oc1ccc(CO)cc1[C@H](CCN(C(C)C)C(C)C)c1ccccc1 [Fesoterodine fumarate (Toviaz)] | -0.933%
4 | CC(C)(C)NC(=O)[C@H]1CC[C@H]2[C@@H]3CC[C@H]4NC(=O)C=C[C@]4(C)[C@H]3CC[C@]12C [Finasteride] | 59.6%
5 | O=c1c(O)c(-c2ccc(O)c(O)c2)oc2cc(O)ccc12 [Fisetin (Fustel)] | -2.5%
6 | CN1CCN(c2c(F)cc3c(=O)c(C(=O)O)cn(CCF)c3c2F)CC1 [Fleroxacin (Quinodis)] | -8.01%
7 | O=c1[nH]c(=O)n([C@H]2C[C@H](O)[C@@H](CO)O2)cc1F [Floxuridine] | -8.07%
8 | OC(Cn1cncn1)(Cn1cncn1)c1ccc(F)cc1F [Fluconazole] | 6.24%
9 | Nc1nc(=O)[nH]cc1F [Flucytosine (Ancobon)] | 3.84%
10 | Nc1nc(F)nc2c1ncn2[C@@H]1O[C@H](CO)[C@@H](O)[C@@H]1O [Fludarabine (Fludara)] | 16.2%
11 | Nc1nc(F)nc2c1ncn2[C@@H]1O[C@H](COP(=O)(O)O)[C@@H](O)[C@@H]1O [Fludarabine Phosphate (Fludara)] | -10.8%
12 | CCOC(=O)c1ncn2c1CN(C)C(=O)c1cc(F)ccc1-2 [Flumazenil] | -13.8%
13 | CC(=O)OCC(=O)[C@@]12OC(C)(C)O[C@@H]1C[C@H]1[C@@H]3C[C@H](F)C4=CC(=O)C=C[C@]4(C)[C@@]3(F)[C@@H](O)C[C@@]12C [Fluocinonide (Vanos)] | -1.57%
14 | CNCCC(Oc1ccc(C(F)(F)F)cc1)c1ccccc1 (stereo not shown) [Fluoxetine HCl] | -11.1%
15 | CC(C(=O)O)c1ccc(-c2ccccc2)c(F)c1 (stereo not shown) [Flurbiprofen (Ansaid)] | 14%
16 | COc1ccc(-c2coc3cc(O)ccc3c2=O)cc1 [Formononetin (Formononetol)] | -0.533%
17 | N[C@@H](CSCCCO)C(=O)O [Fudosteine] | 7.72%
18 | C[C@]12CC[C@@H]3c4ccc(O)cc4C[C@@H](CCCCCCCCC[S+]([O-])CCCC(F)(F)C(F)(F)F)[C@H]3[C@@H]1CC[C@@H]2O (stereo partly shown) [Fulvestrant (Faslodex)] | -2.64%
19 | COc1cc(/C=C/C(=O)O)ccc1O [Fumalic acid (Ferulic acid)] | -0.686%
20 | NS(=O)(=O)c1cc(C(=O)O)c(NCc2ccco2)cc1Cl [Furosemide (Lasix)] | 32.1%
21 | CC[N+](CC)(CC)CCOc1cccc(OCC[N+](CC)(CC)CC)c1OCC[N+](CC)(CC)CC [Gallamine triethiodide (Flaxedil)] | -8.46%
22 | CC(C)=CCC[C@]1(C)C=Cc2c(O)c3c(c(CC=C(C)C)c2O1)O[C@]12C(=C[C@@H]4C[C@H]1C(C)(C)O[C@@]2(C/C=C(/C)C(=O)O)C4=O)C3=O [Gambogic Acid] | 14.8%
23 | OCc1ccc(O[C@@H]2O[C@H](CO)[C@@H](O)[C@H](O)[C@H]2O)cc1 [Gastrodin(Gastrodine)] | 3.84%
24 | COc1c(N2CCNC(C)C2)c(F)cc2c(=O)c(C(=O)O)cn(C3CC3)c12 (stereo not shown) [Gatifloxacin] | -10.3%
25 | Nc1ccn([C@@H]2O[C@H](CO)[C@@H](O)C2(F)F)c(=O)n1 [Gemcitabine HCl (Gemzar)] | -9.76%
26 | Cc1ccc(C)c(OCCCC(C)(C)C(=O)O)c1 [Gemfibrozil (Lopid)] | 2.6%

Row | SMILES | inhibition at 10 µM
27 | C#C[C@]1(O)C=C[C@H]2[C@@H]3CCC4=CC(=O)CC[C@@H]4[C@H]3CC[C@@]21CC [Gestodene] | -1.48%
28 | CCC1=C(C)CN(C(=O)NCCc2ccc(S(=O)(=O)NC(=O)N[C@H]3CC[C@H](C)CC3)cc2)C1=O [Glimepiride] | -11.4%
29 | Cc1cnc(C(=O)NCCc2ccc(S(=O)(=O)NC(=O)NC3CCCCC3)cc2)cn1 [Glipizide (Glucotrol)] | 9.36%
30 | COc1ccc(Cl)cc1C(=O)NCCc1ccc(S(=O)(=O)NC(=O)NC2CCCCC2)cc1 [Glyburide (Diabeta)] | 0.906%
31 | Cc1cc2c(C(C)C)c(O)c(O)c(C=O)c2c(O)c1-c1c(C)cc2c(C(C)C)c(O)c(O)c(C=O)c2c1O [Gossypol] | -2.2%
32 | CN(C)Cc1c[nH]c2ccccc12 [Gramine] | -3.83%
33 | COc1ccccc1OCC(O)CO (stereo not shown) [Guaifenesin (Guaiphenesin)] | 13.1%
34 | Nc1nc2c(ncn2[C@@H]2O[C@H](CO)[C@@H](O)[C@H]2O)c(=O)[nH]1 [Guanosine] | -1.96%
35 | O=C(CCCN1CCC(O)(c2ccc(Cl)cc2)CC1)c1ccc(F)cc1 [Haloperidol (Haldol)] | 65%
36 | Oc1cc2c(cc1O)[C@@H]1c3ccc(O)c(O)c3OC[C@]1(O)C2 [Hematoxylin (Hydroxybrazilin)] | 1.27%
37 | COc1ccc([C@@H]2CC(=O)c3c(O)cc(O)cc3O2)cc1O [Hesperetin] | -3.04%
38 | COc1ccc([C@@H]2CC(=O)c3c(O)cc(O[C@@H]4O[C@H](CO[C@@H]5O[C@@H](C)[C@H](O)[C@@H](O)[C@H]5O)[C@@H](O)[C@H](O)[C@H]4O)cc3O2)cc1O [Hesperidin] | -3.55%
39 | C=CCc1ccc(O)c(-c2ccc(O)c(CC=C)c2)c1 [Honokiol] | -2.26%
40 | CN(C)CCc1ccc(O)cc1 [Hordenine] | -0.889%
41 | NNc1nncc2ccccc12 [Hydralazine hydrochloride] | -0.625%
42 | NS(=O)(=O)c1cc2c(cc1Cl)NCNS2(=O)=O [Hydrochlorothiazide] | 8.57%
43 | C[C@]12CCC(=O)C=C1CC[C@@H]1[C@@H]2[C@@H](O)C[C@@]2(C)[C@H]1CC[C@]2(O)C(=O)CO [Hydrocortisone (Cortisol)] | 4.6%
44 | NC(=O)NO [Hydroxyurea (Cytodrox)] | -2.47%
45 | C[C@H](CCC(=O)O)[C@H]1CC[C@H]2[C@@H]3C[C@H](O)[C@@H]4C[C@H](O)CC[C@]4(C)[C@H]3CC[C@]12C [Hyodeoxycholic acid (HDCA)] | -3.21%
46 | O=c1[nH]cnc2nc[nH]c12 [Hypoxanthine] | 1.08%
47 | COc1ccc(-c2oc3c(CC=C(C)C)c(O[C@@H]4O[C@H](CO)[C@@H](O)[C@H](O)[C@H]4O)cc(O)c3c(=O)c2O[C@@H]2O[C@@H](C)[C@H](O)[C@@H](O)[C@H]2O)cc1 [Icariin] | -2.42%
48 | COc1cc(C(C)=O)ccc1OCCCN1CCC(c2noc3cc(F)ccc23)CC1 [Iloperidone (Fanapt)] | 21.7%
49 | CC(C)Cn1cnc2c(N)nc3ccccc3c21 [Imiquimod] | -8.7%
50 | CC1Cc2ccccc2N1NC(=O)c1ccc(Cl)c(S(N)(=O)=O)c1 (stereo not shown) [Indapamide (Lozol)] | 0.426%
51 | O=C1Nc2ccccc2/C1=C1/Nc2ccccc2C1=O [Indirubin] | 8.04%
52 | OCc1c[nH]c2ccccc12 [Indole-3-carbinol] | -2.03%

Row | SMILES | inhibition at 10 µM
53 | COc1ccc2c(c1)c(CC(=O)O)c(C)n2C(=O)c1ccc(Cl)cc1 [Indomethacin (Indocid, Indocin)] | 3.41%
54 | O=c1[nH]cnc2c1ncn2[C@@H]1O[C@H](CO)[C@@H](O)[C@H]1O [Inosine] | 19.8%
55 | CC(C)[N+]1(C)[C@@H]2CC[C@H]1CC(OC(=O)C(CO)c1ccccc1)C2 (stereo partly shown) [Ipratropium bromide] | 9.81%
56 | CC(C)Oc1ccc2c(=O)c(-c3ccccc3)coc2c1 [Ipriflavone] | -1.69%
57 | CCCCC1=NC2(CCCC2)C(=O)N1Cc1ccc(-c2ccccc2-c2nnn[nH]2)cc1 [Irbesartan (Avapro)] | 0.237%
58 | O=C(/C=C/c1ccc(O)cc1)c1ccc(O)cc1O [Isoliquiritigenin] | 5.56%
59 | NNC(=O)c1ccncc1 [Isoniazid (Tubizid)] | 45.6%
60 | CC(C)NCC(O)c1ccc(O)c(O)c1 (stereo not shown) [Isoprenaline hydrochloride] | -0.7%
61 | CC1=C(/C=C/C(C)=C/C=C/C(C)=C\C(=O)O)C(C)(C)CCC1 [Isotretinoin] | -1.4%
62 | O=c1c(O)c(-c2ccc(O)cc2)oc2cc(O)cc(O)c12 [Kaempferol] | -2.58%
63 | CC(C(=O)O)c1cccc(C(=O)c2ccccc2)c1 (stereo not shown) [Ketoprofen (Actron)] | 30.2%
64 | O=C(c1ccccc1)c1ccc2n1CCC2C(=O)O (stereo not shown) [Ketorolac (Toradol)] | 37.4%
65 | c1coc(CNc2ncnc3[nH]cnc23)c1 [Kinetin (6-Furfuryladenine)] | -0.453%
66 | C[C@H](O)[C@H](O)[C@@H](O)[C@@H](O)C=O [L(+)-Rhamnose Monohydrate] | 0.562%
67 | CNC[C@@H](O)c1ccc(O)c(O)c1 [L-Adrenaline (Epinephrine)] | 0.37%
68 | NC(=O)CC[C@H](N)C(=O)O [L-Glutamine] | -2.01%
69 | C[N+](C)(C)C[C@H](O)CC(=O)[O-] [L-carnitine (Levocarnitine)] | 3.2%
70 | Nc1ccn([C@@H]2CS[C@H](CO)O2)c(=O)n1 [Lamivudine (Epivir)] | 0.555%
71 | Cc1c(OCC(F)(F)F)ccnc1C[S+]([O-])c1nc2ccccc2[nH]1 (stereo not shown) [Lansoprazole] | -7.28%
72 | CS(=O)(=O)CCNCc1ccc(-c2ccc3ncnc(Nc4ccc(OCc5cccc(F)c5)c(Cl)c4)c3c2)o1 [Lapatinib Ditosylate (Tykerb)] | 4.76%
73 | Cc1oncc1C(=O)Nc1ccc(C(F)(F)F)cc1 [Leflunomide] | 15.6%
74 | Nc1cccc2c1CN(C1CCC(=O)NC1=O)C2=O (stereo not shown) [Lenalidomide] | -2.36%
75 | N#Cc1ccc(C(c2ccc(C#N)cc2)n2cncn2)cc1 [Letrozole] | 0.34%
76 | Nc1nc2c(c(=O)[nH]1)N(C=O)C(CNc1ccc(C(=O)N[C@@H](CCC(=O)O)C(=O)O)cc1)CN2 (stereo partly shown) [Leucovorin Calcium] | -10.9%
